Several values for one entry are separate records, joined by “and”; a condition that tells them apart may be missing. Identical values can stand only once. Like-named read-outs stand apart in the source and are kept apart here. Where a SMILES comes first, the peptide text is derived from it. [ ]: non-standard residue; d: D form.
Legend:
Caco-2 monolayers [1] = assay: TEER of Caco-2 monolayers after apical PIP peptide; assay type: cell-based, human; settings: for TEER % of initial baseline at time of washout: 5 mM peptide for 180 min, Caco-2; for Effect on TEER compared to control (FIG. 1): 5 mM peptide, Caco-2 monolayer, one-way ANOVA with bonferroni post-test; for TEER reduced to % of baseline: 5 mM applied to apical surface of Caco-2 monolayers
Procedure: An immortalized human intestinal epithelial cell line (Caco-2) was maintained in DMEM/F12 (Gibco, Paisley, UK) supplemented with 10% FBS, 2 mM L-glutamine (Gibco) 100 U/mL penicillin and 100 μg/mL streptomycin (Gibco). Caco-2 cells were seeded at a density of 7×10^4/well on Transwell™ (Corning, NY) polyester membrane filters (12 mm diameter, 0.4 μm pore size). Feeding with fresh media (Life Technologies, Paisley, UK) was carried out every second day. Caco-2 monolayers with trans-epithelial electrical resistance (TEER) >350 Ω·cm^2 were used for these studies; such TEER values as measured using fixed paddle electrodes and a voltohmeter (World Precision Instruments, UK), were typically achieved between days 15-18 following seeding on Transwell™ filters.
Apical to basal flux of 10 mg/mL 4 kDa fluorescent dextran (Sigma) was performed to assess PIP peptide impact on paracellular permeability. Apical (200 μL) and basal (500 μL) compartment media were replaced with fresh HBSS and allowed to equilibrate for 30 min when TEER measurements were obtained to ensure monolayer integrity. After apical application of the fluorescent dextra the basal compartment volume was collected at set times (typically 0, 15, 30 60, 90, 120 and 180 min) and replaced with fresh HBSS each time. Apical and basal compartment fluorescence was determined using a Fluorostar Omega microplate reader (BMG Labtech, Ortenburg, Germany). After 3 h, the apical compartment fluorescent dextran/peptide solution was removed and replaced with PBS and TEER values were recorded for a further 30 min to monitor monolayer recovery. TEER values were calculated by subtracting blank filter readings and normalized as a percentage of the initial TEER value for that monolayer.

[2] = tested on: myosin light chain (MLC) phosphorylation; assay: Western blot, ratio of pMLC to total MLC in Caco-2 lysates; assay type: cell-based, human; settings: 5 mM peptide, Caco-2 monolayers
Procedure: (§1) Lysates of Caco-2 monolayers prepared using 200 μL RIPA buffer along with 10 μL protease and phosphatase inhibitors per well were placed in 1.5 mL Eppendorf tubes and centrifuged at 4000×g for 10 min with supernatants being removed and stored at −80° C. until separation using a 12% SDS-PAGE gel. Protein samples were mixed 1:1 with loading buffer and denatured by heating at 95° C. for 5 min with 20 μL being loaded for analysis. Separated proteins were transferred onto a nitrocellulose membrane at 30 V for 75 min. Membranes were blocked with 5% bovine serum albumin in TBS-T for 2 h prior to an overnight incubation at 4° C. with primary antibodies diluted in TBS-T. Membranes were thrice washed with TBS-T and then incubated with fluorescent-tagged secondary antibodies at room temperature for 2 h. Membranes were thrice washed with TBS-T and analysed using a Licor imaging system.

occludin = assay: Western blot for occludin in lysates of Caco-2 monolayers; assay type: cell-based, human; settings: Caco-2 monolayers treated for 90 min
Procedure: as §1

PP1 = PP1 (Homo sapiens, UniProt P62140); assay: Binding assay of biotinylated peptides or MYPT1 1-299 to immobilised His-tagged PP1
Procedure: (§2) His-tagged PP1 diluted in PBS-T was incubated in nickel coated wells for 1 hour and washed three times with PBS-T. Wells were incubated with increasing concentrations of biotinylated PIP peptides or amino acids 1-299 of MYPT1. Wells were washed again three times with PBS-T and incubated with streptavidin conjugated to Alexa Fluor 488 for 1 hour. Wells were washed as previously and the plate was read for fluorescence (Ex:480 nm, Em: 510 nm).

MYPT1 binding to PP1 = assay: MYPT1/PP1 binding assay in presence of increasing PIP peptide concentrations; settings: read-out: KI for inhibition of MYPT1 binding to PP1
Procedure: as §2
The binding assay with MYPT1 was repeated in the presence of increasing concentrations of PIP peptides to determine the competition between MYPT1 and the peptides.

Caco-2 monolayers [3] = assay: TEER of Caco-2 monolayers after apical PIP peptide; assay type: cell-based, human; settings: 5 mM peptide for 180 min, then washout, 90 min recovery

Chain of PP1 (P62140 whole entry, the tested form may be a part): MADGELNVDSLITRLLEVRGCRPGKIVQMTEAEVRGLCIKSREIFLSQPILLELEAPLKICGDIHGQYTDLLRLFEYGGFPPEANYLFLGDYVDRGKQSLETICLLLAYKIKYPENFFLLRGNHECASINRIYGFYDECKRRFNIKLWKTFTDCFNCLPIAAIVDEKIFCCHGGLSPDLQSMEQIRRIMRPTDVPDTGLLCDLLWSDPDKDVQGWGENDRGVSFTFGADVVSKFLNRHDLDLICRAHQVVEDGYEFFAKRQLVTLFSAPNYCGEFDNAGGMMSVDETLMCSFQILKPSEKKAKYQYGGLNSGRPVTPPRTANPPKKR

| Molecule | TEER % of initial baseline at time of washout (Caco-2 monolayers [1]) | Effect on TEER compared to control (FIG. 1) (Caco-2 monolayers [1]) | ratio of pMLC to MLC compared to untreated control [2] | occludin level % of control (occludin) [%] | Kd (PP1) [µM] | Ki (MYPT1 binding to PP1) [µM] | TEER % of baseline 90 min after washout (Caco-2 monolayers [3]) [%] | TEER reduced to % of baseline (Caco-2 monolayers [1]) [%] | Kd (PP1; derived from binding curves, read-out: KD for binding to PP1) [µM] | Kd (PP1; same assay, read-out: KD for binding to PP1) [µM] |
| --- | --- | --- | --- | --- | --- | --- | --- | --- | --- | --- |
| CC(C)[C@@H](NC(=O)[C@@H](CCCCN)NC(=O)[C@@H](Cc1ccccc1)NC(=O)[C@@H](CCCNC(=N)N)NC(=O)[C@H](N)CCCNC(=N)N)C(=O)N[C@H](CCCCN)C(=O)N[C@@H](C(=O)N[C@H](CCCCN)C(=O)N[C@H](CCCCN)C(=O)N[C@H](CCCNC(=N)N)C(=O)N[C@H](CCCCN)C(N)=O)[C@H](C)O [PIP250, H-rrfkvktkkrk-NH2, reference compound] (H-[dR][dR][dF][dK][dV][dK][dT][dK][dK][dR][dK]-NH2) | ~ 50% and 49% | significantly different from control | significantly increased | 65.8 | 610 | 155 | 54 |  |  |  |
| CC(C)[C@@H](NC(=O)[C@@H](CCCCN)NC(=O)[C@@H](C)NC(=O)[C@@H](CCCNC(=N)N)NC(=O)[C@H](N)CCCNC(=N)N)C(=O)N[C@H](CCCCN)C(=O)N[C@@H](C(=O)N[C@H](CCCCN)C(=O)N[C@H](CCCCN)C(=O)N[C@H](CCCNC(=N)N)C(=O)N[C@H](CCCCN)C(N)=O)[C@H](C)O [PIP251, H-rrakvktkkrk-NH2] (H-[dR][dR][dA][dK][dV][dK][dT][dK][dK][dR][dK]-NH2) | 58% | significantly different from control | increased the ratio of pMLC to MLC, however to a lesser extent than the parent PIP250 | 84.1 | 1280 |  | 94 | 62.7 |  |  |
| C[C@H](O)[C@@H](NC(=O)[C@@H](CCCCN)NC(=O)[C@@H](C)NC(=O)[C@@H](CCCCN)NC(=O)[C@@H](Cc1ccccc1)NC(=O)[C@@H](CCCNC(=N)N)NC(=O)[C@H](N)CCCNC(=N)N)C(=O)N[C@H](CCCCN)C(=O)N[C@H](CCCCN)C(=O)N[C@H](CCCNC(=N)N)C(=O)N[C@H](CCCCN)C(N)=O [PIP252, H-rrfkaktkkrk-NH2] (H-[dR][dR][dF][dK][dA][dK][dT][dK][dK][dR][dK]-NH2) | 55% | significantly different from control | increased the ratio of pMLC to MLC, however to a lesser extent than the parent PIP250 | 61.4 | 724 |  | 70 | 66 |  |  |
| CC(C)[C@@H](NC(=O)[C@@H](CCCCN)NC(=O)[C@@H](CC(=O)O)NC(=O)[C@@H](CCCNC(=N)N)NC(=O)[C@H](N)CCCNC(=N)N)C(=O)N[C@H](CCCCN)C(=O)N[C@@H](C(=O)N[C@H](CCCCN)C(=O)N[C@H](CCCCN)C(=O)N[C@H](CCCNC(=N)N)C(=O)N[C@H](CCCCN)C(N)=O)[C@H](C)O [PIP253, H-rrdkvktkkrk-NH2] (H-[dR][dR][dD][dK][dV][dK][dT][dK][dK][dR][dK]-NH2) |  | not significant | did not significantly increase |  |  |  |  | 88 |  |  |
| C[C@H](O)[C@@H](NC(=O)[C@@H](CCCCN)NC(=O)[C@@H](CC(=O)O)NC(=O)[C@@H](CCCCN)NC(=O)[C@@H](Cc1ccccc1)NC(=O)[C@@H](CCCNC(=N)N)NC(=O)[C@H](N)CCCNC(=N)N)C(=O)N[C@H](CCCCN)C(=O)N[C@H](CCCCN)C(=O)N[C@H](CCCNC(=N)N)C(=O)N[C@H](CCCCN)C(N)=O [PIP254, H-rrfkdktkkrk-NH2] (H-[dR][dR][dF][dK][dD][dK][dT][dK][dK][dR][dK]-NH2) |  | not significant | did not significantly increase |  |  |  |  | 85 |  |  |
| MYPT11-299: amino acids 1-299 of MYPT1 (protein, UniProt O14974 1-299, looked up, fragment) MKMADAKQKRNEQLKRWIGSETDLEPPVVKRQKTKVKFDDGAVFLAACSSGDTDEVLKLLHRGADINYANVDGLTALHQACIDDNVDMVKFLVENGANINQPDNEGWIPLHAAASCGYLDIAEFLIGQGAHVGAVNSEGDTPLDIAEEEAMEELLQNEVNRQGVDIEAARKEEERIMLRDARQWLNSGHINDVRHAKSGGTALHVAAAKGYTEVLKLLIQAGYDVNIKDYDGWTPLHAAAHWGKEEACRILVDNLCDMEMVNKVGQTAFDVADEDILGYLEELQKKQNLLHSEKRDKKS |  |  |  |  |  |  |  |  | 0.05 | 0.049 |
